According to the NIST ThermoML archive (doi:10.1021/je034222z):
Numbers after ± are expanded uncertainties.

## OCCC(F)(F)C(F)(F)C(F)(F)C(F)(F)C(F)(F)C(F)(F)C(F)(F)C(F)(F)F [1-decanol, 3,3,4,4,5,5,6,6,7,7,8,8,9,9,-heptadecafluoro]
294.1 K, Crystal, Transpiration method
  vapor or sublimation pressure: 0.003 ± 0.001 kPa
357.15 K, Liquid
  vapor or sublimation pressure: 0.708 ± 0.13 kPa
369.15 K, Liquid
  vapor or sublimation pressure: 1.465 ± 0.21 kPa
380.15 K, Liquid
  vapor or sublimation pressure: 2.774 ± 0.25 kPa
392.15 K, Liquid
  vapor or sublimation pressure: 4.91 ± 0.32 kPa
397.15 K, Liquid
  vapor or sublimation pressure: 5.1 ± 1 kPa
403.15 K, Liquid
  vapor or sublimation pressure: 8.284 ± 0.42 kPa
415.15 K, Liquid
  vapor or sublimation pressure: 13.8 ± 0.6 kPa
421.15 K, Liquid
  vapor or sublimation pressure: 15.27 ± 3.1 kPa
428.15 K, Liquid
  vapor or sublimation pressure: 22.75 ± 0.89 kPa
430.15 K, Liquid
  vapor or sublimation pressure: 23.4 ± 4.7 kPa
439.15 K, Liquid
  vapor or sublimation pressure: 34.45 ± 1.3 kPa
440.15 K, Liquid
  vapor or sublimation pressure: 32 ± 6.4 kPa
445.15 K, Liquid
  vapor or sublimation pressure: 35.67 ± 7.1 kPa
452.15 K, Liquid
  vapor or sublimation pressure: 51.67 ± 1.8 kPa
463.15 K, Liquid
  vapor or sublimation pressure: 72.34 ± 2.5 kPa
468.15 K, Liquid
  vapor or sublimation pressure: 75.75 ± 15 kPa
474.15 K, Liquid
  vapor or sublimation pressure: 100.61 ± 3.4 kPa
498.15 K, Liquid
  vapor or sublimation pressure: 162.1 ± 32 kPa
Crystal, visual observation
  Normal melting temperature: 49.0 ± 2 °C
